Source: ChEMBL document CHEMBL5532743, “Discovery of a Pentapeptide Antagonist to Human Neuromedin U Receptor 1” (ACS Med Chem Lett, 2024)
Blank lines part the entries; values can stand above or below the compound they belong to. Activity calls are given as the source filed them. The rule behind the calls is not given here. Non-standard residues stand in square brackets, D forms with d. Residues, ends and D or L forms follow the SMILES beside them. *: point of attachment. NMeW = CN[C@@H](Cc1c[nH]c2ccccc12)C(=O)O; Phe(4-F) = N[C@@H](Cc1ccc(F)cc1)C(=O)O; NMeY = CN[C@@H](Cc1ccc(O)cc1)C(=O)O; Acetyl(2-thienyl) = O=C(Cc1cccs1)*; NMeF = CN[C@@H](Cc1ccccc1)C(=O)O; hArg = N=C(N)NCCCC[C@H](N)C(=O)O; αMeF = C[C@](N)(Cc1ccccc1)C(=O)O; Tic = O=C(O)[C@@H]1Cc2ccccc2CN1; NMeN = CN[C@@H](CC(N)=O)C(=O)O; NMeL = CN[C@@H](CC(C)C)C(=O)O; Pip = O=C(O)[C@@H]1CCCCN1

Tests used:
[1] = biological target: T1, Neuromedin-U receptor 1 (Homo sapiens) (UniProt Q9HB89); assay: Antagonist activity at human NMUR1 stably expressed in CHO cells by Fluo-4 AM dye based calcium mobilization assay; assay type: functional, cell-based; details: dose 30-300 nM
T1 sequence (whole entry): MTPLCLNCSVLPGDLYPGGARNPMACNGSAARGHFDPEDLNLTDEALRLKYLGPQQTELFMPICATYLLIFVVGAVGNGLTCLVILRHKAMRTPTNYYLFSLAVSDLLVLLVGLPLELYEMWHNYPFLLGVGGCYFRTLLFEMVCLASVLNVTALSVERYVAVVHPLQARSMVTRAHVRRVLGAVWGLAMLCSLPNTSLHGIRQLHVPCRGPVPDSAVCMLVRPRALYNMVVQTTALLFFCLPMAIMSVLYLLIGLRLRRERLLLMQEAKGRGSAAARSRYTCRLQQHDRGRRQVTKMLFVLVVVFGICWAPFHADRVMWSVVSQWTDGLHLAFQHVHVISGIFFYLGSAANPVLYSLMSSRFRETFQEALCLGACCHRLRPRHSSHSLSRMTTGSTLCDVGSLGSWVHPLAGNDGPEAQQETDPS

[2] = biological target: T2, Neuromedin-U receptor 2 (Homo sapiens, UniProt Q9GZQ4); assay: Antagonist activity at human NMUR2 stably expressed in CHO cells by Fluo-4 AM dye based calcium mobilization assay; assay type: functional, cell-based; details: filed as antagonist, dose 30-300 nM
T2 sequence (Q9GZQ4 whole entry): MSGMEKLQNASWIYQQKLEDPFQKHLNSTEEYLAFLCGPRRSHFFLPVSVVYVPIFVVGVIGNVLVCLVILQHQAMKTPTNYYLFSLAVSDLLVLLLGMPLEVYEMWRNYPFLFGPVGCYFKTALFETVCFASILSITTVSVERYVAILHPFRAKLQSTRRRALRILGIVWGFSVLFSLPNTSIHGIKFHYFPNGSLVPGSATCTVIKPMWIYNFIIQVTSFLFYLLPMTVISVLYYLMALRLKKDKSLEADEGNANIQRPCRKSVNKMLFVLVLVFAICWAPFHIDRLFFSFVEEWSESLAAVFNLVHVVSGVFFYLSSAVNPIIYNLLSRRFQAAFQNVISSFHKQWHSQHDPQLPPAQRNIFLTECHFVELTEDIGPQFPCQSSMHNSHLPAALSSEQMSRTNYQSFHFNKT

[3] = organism: Homo sapiens; assay: Selectivity ratio of human NMUR2 to human NMUR1
[4] = biological target: T3, Neuromedin-U receptor 1 (Homo sapiens, UniProt Q9HB89); assay: Antagonist potency at human NMUR1 stably expressed in CHO cells by Fluo-4 AM dye based calcium mobilization assay; assay type: functional, cell-based; details: read-out: pA2 (converted)
T3 sequence (Q9HB89 whole entry): T1 sequence (whole entry)

[5] = biological target: T2, Neuromedin-U receptor 2; assay: Binding affinity to human NMUR2 assessed as equilibrium binding constant; details: filed as antagonist
[6] = Drug degradation in human serum assessed as half life by RP-HPLC analysis; assay type: ADME, cell-free
[7] = biological target: T4, Neuromedin-U receptor 1 (Mus musculus) (UniProt O55040); assay: Antagonist activity at mouse NMUR1 expressed in HEK293 cells by Fluo-4 AM dye based calcium mobilization assay; assay type: functional, cell-based
T4 sequence (whole entry): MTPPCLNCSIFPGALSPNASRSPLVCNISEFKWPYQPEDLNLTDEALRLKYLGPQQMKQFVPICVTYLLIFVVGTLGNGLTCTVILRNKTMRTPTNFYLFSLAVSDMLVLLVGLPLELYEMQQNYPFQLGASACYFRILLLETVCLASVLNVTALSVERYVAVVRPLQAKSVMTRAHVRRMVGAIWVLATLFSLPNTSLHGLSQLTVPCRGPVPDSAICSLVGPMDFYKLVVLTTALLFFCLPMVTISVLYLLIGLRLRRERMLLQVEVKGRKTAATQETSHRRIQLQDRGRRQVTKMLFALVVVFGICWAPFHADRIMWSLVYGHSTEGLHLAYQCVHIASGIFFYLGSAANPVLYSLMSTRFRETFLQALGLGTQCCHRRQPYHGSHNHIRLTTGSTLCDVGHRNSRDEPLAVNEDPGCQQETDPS

[8] = biological target: T1, Neuromedin-U receptor 1 (Homo sapiens); assay: Binding affinity to human NMUR1 assessed as equilibrium binding constant; details: filed as antagonist
[9] = biological target: T1, Neuromedin-U receptor 1 (Homo sapiens); assay: Antagonist activity at human NMUR1 stably expressed in CHO cells at 100 to 1000 nM by Fluo-4 AM dye based calcium mobilization assay; assay type: functional, cell-based; details: filed as antagonist, dose 100-1000 nM
[10] = biological target: T2, Neuromedin-U receptor 2; assay: Antagonist potency at human NMUR2 stably expressed in CHO cells by Fluo-4 AM dye based calcium mobilization assay; assay type: functional, cell-based; details: read-out: pA2 (converted)
[11] = biological target: Neuromedin-U receptor 2 (Mus musculus) (UniProt Q8BZ39); assay: Antagonist activity at mouse NMUR2 expressed in HEK293 cells by Fluo-4 AM dye based calcium mobilization assay; assay type: functional, cell-based
Neuromedin-U receptor 2 (Mus musculus), sequence (Q8BZ39 whole entry): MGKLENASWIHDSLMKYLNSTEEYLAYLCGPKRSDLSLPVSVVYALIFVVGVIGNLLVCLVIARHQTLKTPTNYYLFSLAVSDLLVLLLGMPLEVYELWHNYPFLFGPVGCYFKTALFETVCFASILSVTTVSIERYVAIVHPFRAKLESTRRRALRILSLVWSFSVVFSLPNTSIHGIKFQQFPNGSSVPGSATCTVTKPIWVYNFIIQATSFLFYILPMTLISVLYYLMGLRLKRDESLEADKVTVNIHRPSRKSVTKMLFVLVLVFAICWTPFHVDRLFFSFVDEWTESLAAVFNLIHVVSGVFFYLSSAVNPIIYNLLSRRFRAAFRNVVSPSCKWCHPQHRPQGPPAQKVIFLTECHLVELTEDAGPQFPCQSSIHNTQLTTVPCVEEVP

[12] = Stability in human plasma assessed drug recovery measured at 120 mins by RP-HPLC analysis; assay type: ADME, cell-free; details: read-out: Drug recovery
[13] = Retention time in human serum measured at 40 min by RP-HPLC analysis; assay type: ADME, cell-free
[14] = Drug metabolism in rat serum assessed as (2S)-5-guanidino-2-[[(2S)-1-[(2S)-5-guanidino-2-[[(2S)-2-[[(2S)-3-(1H-indol-3-yl)-2-[methyl-[2-(2-thienyl)acetyl]amino]propanoyl]amino]-2-methyl-3-phenyl-propanoyl]amino]pentanoyl]pyrrolidine-2-carbonyl]amino]pentanoic acid formation by RP-HPLC analysis; assay type: ADME, cell-free
[15] = Drug degradation in rat serum by RP-HPLC analysis; assay type: ADME, cell-free
[16] = Drug degradation in human serum assessed as drug recovery incubated for 15 mins in presence of aprotinin by RP-HPLC analysis; assay type: ADME, cell-free; details: 0.25 h
[17] = Drug degradation in human serum assessed as drug recovery incubated for 15 mins in presence of argatroban by RP-HPLC analysis; assay type: ADME, cell-free; details: with argatroban, read-out: Drug recovery

SMILES: CN(C(=O)Cc1cccs1)[C@@H](Cc1ccccc1)C(=O)N[C@@H](Cc1ccccc1)C(=O)N[C@@H](CCCNC(=N)N)C(=O)N1CCC[C@H]1C(=O)N[C@@H](CCCNC(=N)N)C(=O)N[C@@H](CC(N)=O)C(N)=O ({Acetyl(2-thienyl)}-[NMeF]FRPRN-NH2)
- Activity ([1]; filed as antagonist): Active

SMILES: CC(C)C[C@@H](C(=O)N[C@@H](Cc1ccccc1)C(=O)N[C@@H](CCCNC(=N)N)C(=O)N1CCC[C@H]1C(=O)N[C@@H](CCCNC(=N)N)C(=O)N[C@@H](CC(N)=O)C(N)=O)N(C)C(=O)Cc1cccs1 ({Acetyl(2-thienyl)}-[NMeL]FRPRN-NH2)
- Activity ([1]; filed as antagonist): Active

SMILES: CN(C(=O)Cc1cccs1)[C@@H](CC(N)=O)C(=O)N[C@@H](Cc1ccccc1)C(=O)N[C@@H](CCCNC(=N)N)C(=O)N1CCC[C@H]1C(=O)N[C@@H](CCCNC(=N)N)C(=O)N[C@@H](CC(N)=O)C(N)=O ({Acetyl(2-thienyl)}-[NMeN]FRPRN-NH2)
- Activity ([1]; filed as antagonist): Active

SMILES: CN(C(=O)Cc1cccs1)[C@@H](Cc1c[nH]c2ccccc12)C(=O)N[C@@H](Cc1ccccc1)C(=O)N[C@@H](CCCNC(=N)N)C(=O)N1CCC[C@H]1C(N)=O ({Acetyl(2-thienyl)}-[NMeW]FRP-NH2)
- Activity ([1]; filed as antagonist): Active
- Activity [2]: Active

SMILES: CN(C(=O)Cc1cccs1)[C@@H](Cc1c[nH]c2ccccc12)C(=O)N[C@@H](Cc1ccccc1)C(=O)N[C@@H](CCCNC(=N)N)C(=O)N1CCC[C@H]1C(=O)N[C@@H](CCCNC(=N)N)C(=O)O ({Acetyl(2-thienyl)}-[NMeW]FRPR-OH)
- Activity ([1]; filed as antagonist): Active
- Activity [2]: Active

SMILES: CN(C(=O)Cc1cccs1)[C@@H](Cc1c[nH]c2ccccc12)C(=O)N[C@@H](Cc1ccccc1)C(=O)N[C@@H](CCCNC(=N)N)C(=O)N1CCC[C@H]1C(=O)N[C@@H](CCCNC(=N)N)C(=O)N[C@@H](CC(=O)O)C(N)=O ({Acetyl(2-thienyl)}-[NMeW]FRPRD-NH2)
- Activity ([1]; filed as antagonist): Active

SMILES: CN(C(=O)Cc1cccs1)[C@@H](Cc1c[nH]c2ccccc12)C(=O)N[C@@H](Cc1ccccc1)C(=O)N[C@@H](CCCNC(=N)N)C(=O)N1CCC[C@H]1C(=O)N[C@@H](CCCNC(=N)N)C(=O)N[C@@H](CC(N)=O)C(N)=O ({Acetyl(2-thienyl)}-[NMeW]FRPRN-NH2)
- Activity ([1]; filed as antagonist): Active

SMILES: CN(C(=O)Cc1cccs1)[C@@H](Cc1c[nH]c2ccccc12)C(=O)N[C@@H](Cc1ccccc1)C(=O)N[C@@H](CCCNC(=N)N)C(=O)N1CCC[C@H]1C(=O)N[C@@H](CCCNC(=N)N)C(=O)N[C@@H](CCC(N)=O)C(N)=O ({Acetyl(2-thienyl)}-[NMeW]FRPRQ-NH2)
- Activity ([1]; filed as antagonist): Active

SMILES: CC(C)C[C@H](NC(=O)[C@H](Cc1c[nH]c2ccccc12)N(C)C(=O)Cc1cccs1)C(=O)N[C@@H](CCCNC(=N)N)C(=O)N1CCC[C@H]1C(=O)N[C@@H](CCCNC(=N)N)C(=O)N[C@@H](CC(N)=O)C(N)=O ({Acetyl(2-thienyl)}-[NMeW]LRPRN-NH2)
- Activity ([1]; filed as antagonist): Active

SMILES: CN(C(=O)Cc1cccs1)[C@@H](Cc1c[nH]c2ccccc12)C(=O)N[C@@H](Cc1c[nH]c2ccccc12)C(=O)N[C@@H](CCCNC(=N)N)C(=O)N1CCC[C@H]1C(=O)N[C@@H](CCCNC(=N)N)C(=O)N[C@@H](CC(N)=O)C(N)=O ({Acetyl(2-thienyl)}-[NMeW]WRPRN-NH2)
- Activity ([1]; filed as antagonist): Active

SMILES: CN(C(=O)Cc1cccs1)[C@@H](Cc1c[nH]c2ccccc12)C(=O)N[C@@H](Cc1ccc(F)cc1)C(=O)N[C@@H](CCCNC(=N)N)C(=O)N1CCC[C@H]1C(=O)N[C@@H](CCCNC(=N)N)C(N)=O ({Acetyl(2-thienyl)}-[NMeW][Phe(4-F)]RPR-NH2)
- Kb [4]: 6.46 nM
- Kb [5]: 41 nM
- half-life [6]: 1.9 min
- Activity [7]: inactive
- Kb [8]: 6.4 nM
- Activity [9]: Active
- Kb [10]: 41.7 nM
- Activity ([1]; filed as antagonist): Active
- Activity [11]: inactive
- Activity [2]: Active

SMILES: CN(C(=O)Cc1cccs1)[C@@H](Cc1ccc(O)cc1)C(=O)N[C@@H](Cc1ccccc1)C(=O)N[C@@H](CCCNC(=N)N)C(=O)N1CCC[C@H]1C(=O)N[C@@H](CCCNC(=N)N)C(=O)N[C@@H](CC(N)=O)C(N)=O ({Acetyl(2-thienyl)}-[NMeY]FRPRN-NH2)
- Activity ([1]; filed as antagonist): Active

Continued, values first:

- Activity [1]: inactive
SMILES: CN(C(=O)Cc1cccs1)[C@@H](Cc1c[nH]c2ccccc12)C(=O)N[C@@H](Cc1ccccc1)C(=O)N[C@@H](CCCNC(=N)N)C(=O)N1CCC[C@H]1C(=O)N[C@@H](CCCCN)C(=O)N[C@@H](CC(N)=O)C(N)=O ({Acetyl(2-thienyl)}-[NMeW]FRPKN-NH2)

- Selectivity ratio [3]: 2.1
- Activity ([1]; filed as antagonist): Active
SMILES: CN(C(=O)Cc1cccs1)[C@@H](Cc1c[nH]c2ccccc12)C(=O)N[C@@H](Cc1ccccc1)C(=O)N[C@@H](CCCNC(=N)N)C(=O)N1CCC[C@H]1C(=O)N[C@@H](CCCNC(=N)N)C(N)=O ({Acetyl(2-thienyl)}-[NMeW]FRPR-NH2)

- Activity ([1]; filed as antagonist): Active
SMILES: CN(C(=O)Cc1cccs1)[C@@H](Cc1c[nH]c2ccccc12)C(=O)N[C@@H](Cc1ccccc1)C(=O)N[C@@H](CCCNC(=N)N)C(=O)N1CCC[C@H]1C(=O)N[C@@H](CCCNC(=N)N)C(=O)N[C@@H](CC(N)=O)C(=O)O ({Acetyl(2-thienyl)}-[NMeW]FRPRN-OH)

- Activity ([1]; filed as antagonist): Active
- Activity [2]: Active
SMILES: CN(C(=O)Cc1cccs1)[C@@H](Cc1c[nH]c2ccccc12)C(=O)N[C@@H](Cc1ccccc1)C(=O)N[C@@H](CCCNC(=N)N)C(=O)N1CCC[C@H]1C(=O)N[C@@H](CCCCNC(=N)N)C(N)=O ({Acetyl(2-thienyl)}-[NMeW]FRP[hArg]-NH2)

- Activity ([1]; filed as antagonist): Active
SMILES: CN(C(=O)Cc1cccs1)[C@@H](Cc1c[nH]c2ccccc12)C(=O)N[C@@H](Cc1ccccc1)C(=O)N[C@@H](CCCNC(=N)N)C(=O)N1CCCC[C@H]1C(=O)N[C@@H](CCCNC(=N)N)C(=O)N[C@@H](CC(N)=O)C(N)=O ({Acetyl(2-thienyl)}-[NMeW]FR[Pip]RN-NH2)

- Selectivity ratio [3]: 2
SMILES: CN(C(=O)Cc1cccs1)[C@@H](Cc1c[nH]c2ccccc12)C(=O)N1Cc2ccccc2C[C@H]1C(=O)N[C@@H](CCCNC(=N)N)C(=O)N1CCC[C@H]1C(=O)N[C@@H](CCCNC(=N)N)C(N)=O ({Acetyl(2-thienyl)}-[NMeW][Tic]RPR-NH2)

- remaining at 2 h [12]: 96.7%
- Retention_time [13]: 48.27 min
- Kb [4]: 44.7 nM
- Selectivity ratio [3]: 2.3
- Drug metabolism [14]: Metabolite_Detected
- Kb [5]: 421 nM
- half-life [6]: 5 min
- Activity [7]: inactive
- Stability [15]: Unstable
- Kb [8]: 45 nM
- Kb [10]: 417 nM
- Stability [16]: Stable
- Activity ([1]; filed as antagonist): Dose-Dependent Effect
- Activity [11]: inactive
- remaining at 0.25 h [17]: 97%
- Activity [2]: Dose-Dependent Effect
SMILES: CN(C(=O)Cc1cccs1)[C@@H](Cc1c[nH]c2ccccc12)C(=O)N[C@@](C)(Cc1ccccc1)C(=O)N[C@@H](CCCNC(=N)N)C(=O)N1CCC[C@H]1C(=O)N[C@@H](CCCNC(=N)N)C(N)=O ({Acetyl(2-thienyl)}-[NMeW][αMeF]RPR-NH2)
